One assay has as its system pCMV.FOX.Luc-2. The assay can be described thus: Ethidium bromide displacement assay (DNA condensation). The assay is classed as binding. Particulars: polyamine:cholesterol liposomes, FIGS. 1A-C. Here is the method: The assay set forth in FIGS. 1A-C is based on a decrease in fluorescence that occurs when ethidium bromide is displaced from DNA by adding cationic liposomes. The lipoplexes were formed by adding a DNA-ethidium bromide solution to a solution containing variable amounts of polyamine:cholesterol liposomes. The lipoplexes were then treated with an equal volume of either water or a TRIS buffered solution at various pHs. The resulting fluorescence was then measured to determine the relative concentration of intercalated ethidium bromide.
Ethidium Bromide Displacement Assay. Ethidium bromide (153 μL of a 0.01% solution) was added to 96 μg of pCMV.FOX.Luc-2. This DNA-ethidium bromide solution was diluted to a final volume of 6 mL. Different concentrations of the polyamine liposomes were added to each well of a 96 well microplate, to which 50 μL of the DNA-ethidium bromide solution was added to obtain a final volume of 100 μL. After 5 min. the lipoplexes were treated with 100 μL of water or buffer and gently shaken. The resulting fluorescence at 250 nm excitation and 610 nm emission was measured using a SpectraMax XS microplate fluorometer (Molecular Devices, Oregon).

Assay [1] relates to CHO cells. The assay can be described thus: Transfection of CHO cells, luciferase assay. The assay is classed as cell-based. To be noted: for luciferase expression: FIG. 3, vs dimyristoyl analogs with the same DNA-binding domain; for transfection activity compared with LipofectAMINE PLUS and TransFast: two cell lines (CHO, NIH-3T3), luciferase and GFP vector. Here is the method:
(§1) Cell Culture. CHO cells (ATCC, Rockville, Md.) were cultured in 75 cm^2 cell culture flasks with HAMS F12 media containing 10% bovine calf serum. NIH 3T3 cells were grown in Dulbecco's modified Eagle's medium with 10% fetal calf serum. The cells were maintained at 37° C. in a 5% CO2 environment. Twenty-four hours prior to transfection, cells were split into 24 well plates at 60% confluence.
(§2) Transfection of CHO and NIH 3T3 Cells. Liposomal suspensions of the polyamines were diluted with Dulbecco's modified essential media (serum free) to obtain the desired concentration. The suspensions were vortex mixed followed by addition of an appropriate quantity of DNA to yield lipoplex preparations at the desired N/P ratio. […] Immediately prior to transfection, the cells were prepared by aspiration of the growth media. The lipoplex preparation was added to the cells (200 μL, 1 μg DNA/well). After incubation for 2 hours, the lipoplex solution was aspirated and replaced with growth media (500 μL),
(§3) Luciferase Assay. Cells were lysed 24 hours after lipoplex administration by adding 200 μL lysis buffer. Luciferase activity was assayed using the Enhanced Luciferase Assay Kit and a Moonlight 2010 luminometer (Pharmingen, San Diego, Calif.). Luciferase activity was measured as Relative Light Units (RLUs) from an aliquot of the cell lysate over a 10 sec. period. A luciferase standard curve was produced using serial dilutions of purified firefly luciferase (Pharmingen, San Diego, Calif.). Using the standard curve, relative light units are converted to μg of luciferase per μL of sample assayed, and expressed as μg luciferase per 60,000 cells. To ensure luminometer consistency, the instrument is calibrated with a luminometer light standard containing ^14C-toluene (Pharmingen, San Diego, Calif.).

Assay [2] relates to NIH 3T3 cells. The assay can be described thus: Transfection of NIH 3T3 cells, luciferase assay. Particulars: for luciferase expression: FIG. 4, vs dimyristoyl analogs with the same DNA-binding domain. The assay is classed as cell-based. Here is the method:
as §1, §2, §3

The test system of assay [3] is CHO cells. Briefly: GFP-annexin V flow cytometric assay in CHO cells. It is filed as cell-based. Particulars: for GFP expression: FIG. 5, polyamines vs dimyristoyl analogs with the same DNA-binding domain. A general note: Flow cytometry measures light scatter and fluorescence of single cells or particles in a stream.
Protocol: Cell Culture. CHO cells (ATCC, Rockville, Md.) were cultured in 75 cm^2 cell culture flasks with HAMS F12 media containing 10% bovine calf serum. […] The cells were maintained at 37° C. in a 5% CO2 environment. Twenty-four hours prior to transfection, cells were split into 24 well plates at 60% confluence.
Flow Cytometry. Cells transfected with the plasmid vector pNDeGFP were trypsinized 24 h after transfection and resuspended in Dulbecco's phosphate buffered saline (DPBS). The resuspended cells were incubated 30 min. in a solution (1:40 dilution of commercial stock) containing annexin V conjugated to biotin (CalTag, Burlingame, Calif.). After a second DPBS wash, the cells were resuspended 30 min. in a solution (1:400 dilution of commercial stock) of the Tri-color fluorophore conjugated to streptavidin (CalTag, Burlingame, Calif.). After a final DPBS wash, the cells were resuspended in 500 μL DPBS. The cells were then analyzed using a dual channel FACScan (Becton Dickinson, San Jose, Calif.) with a 15 mW, 488 nm argon laser.
Using standard techniques, FACScan gating was set with control cells that were prepared simultaneously with the transfected cells. […] GFP fluorescence was measured with a 530/30 band pass filter on channel FL1. The Tri-color fluorescence was measured with a 675 nm band pass filter on channel FL2. Transfection and mean expression were determined using the FL1 autofluorescence signal from control cells, compared to the transfected cell population.
To further determine the influence of the chemical linker on cytotoxicity, flow cytometry was used to measure cell viability. Using a GFP-annexin V flow cytometric assay, cytotoxicity was simultaneously evaluated in transfected and total cell populations.
Assay [4] concerns NIH 3T3 cells. Briefly: GFP-annexin V flow cytometric assay in NIH 3T3 cells. The assay is classed as cell-based. Particulars: FIG. 6, polyamines vs dimyristoyl analogs with the same DNA-binding domain. The procedure: as §1, §2
Flow Cytometry. […] The cells were then analyzed using a dual channel FACScan (Becton Dickinson, San Jose, Calif.) with a 15 mW, 488 nm argon laser.
Using standard techniques, FACScan gating was set with control cells that were prepared simultaneously with the transfected cells. […] GFP fluorescence was measured with a 530/30 band pass filter on channel FL1. The Tri-color fluorescence was measured with a 675 nm band pass filter on […]. Transfection and mean expression were determined using the FL1 autofluorescence signal from control cells, compared to the transfected cell population.
Actinomycin-D (Sigma, St. Louis, Mo.) was used to treat non-transfected cells 24 hours prior to the assay to induce apoptosis. […] Non-treated cells were analyzed to establish baseline cytotoxicity and background auto-fluorescence. Each condition was transfected in triplicate and ten thousand cells were counted and simultaneously analyzed for GFP (transfection and expression) and Tri-color (annexin V) fluorescence. […]

We go through 4 molecules from patent US20040077888A1, “Polyamine-mediated transfection” (The Regents of the University of California, priority 2002, published 2004).

SMILES strings stand for the structures.

Regarding `CCCCCCCC/C=C\CCCCCCCC(=O)OCC(COC(=O)CCCCCCC/C=C\CCCCCCCC)(COC(=O)CCNCCCN(C)C)COC(=O)CCNCCCN(C)C` [polyamine 9], the DNA condensation result in the assay with pCMV.FOX.Luc-2 is listed as “condensed DNA with efficiency”. Moreover, the “transfection activity among the polyamines” value in the assay on CHO cells [1] (CHO cells) was “most active analog”. The luciferase expression entry in the assay with CHO cells [1] (CHO cells) and in the assay with NIH 3T3 cells [2] was “higher levels” each time. Further, the “transfection activity compared with LipofectAMINE PLUS and TransFast” value with CHO cells [1] was “roughly comparable to LipofectAMINE PLUS and TransFast”. The GFP expression entry in the assay on CHO cells [3] and in the assay on NIH 3T3 cells [4] was “higher levels” in each case. In the assay with CHO cells [3] (FIG. 5 black bars), the “population of cells expressing GFP (GFP positive, Annexin V negative)” value is “largest population of cells expressing GFP with extremely low cytotoxicity”.

As for `CCCCCCCC/C=C\CCCCCCCC(=O)OCC(COC(=O)CCCCCCC/C=C\CCCCCCCC)(COC(=O)CCNCCN(C)C)COC(=O)CCNCCN(C)C` [polyamine 8], in the assay on pCMV.FOX.Luc-2, the DNA condensation result is reported as “condensed DNA with efficiency”. Moreover, the luciferase expression entry in the assay on CHO cells [1] (CHO cells) and with NIH 3T3 cells [2] was “higher levels” each time. Besides, the “transfection activity compared with LipofectAMINE PLUS and TransFast” value with CHO cells [1] was “roughly comparable to LipofectAMINE PLUS and TransFast”. For the same molecule, the “transfection activity among the polyamines” value in the assay with NIH 3T3 cells [2] is listed as “superior to the other polyamines”. The GFP expression result with CHO cells [3] and in the assay on NIH 3T3 cells [4] was “higher levels” in each case.

For `CCCCCCCC/C=C\CCCCCCCC(=O)OCC(COC(=O)CCCCCCC/C=C\CCCCCCCC)(COC(=O)CCNCCCCN(C)C)COC(=O)CCNCCCCN(C)C` [polyamine 10], in the assay with pCMV.FOX.Luc-2, the DNA condensation entry is reported as “condensed DNA with efficiency”. The luciferase expression entry with CHO cells [1] (CHO cells) and in the assay on NIH 3T3 cells [2] was “higher levels” each time. The GFP expression result in the assay on CHO cells [3] and in the assay with NIH 3T3 cells [4] was “higher levels” in each case.

For the molecule `CCCCCCCCCCCCCC(=O)OCC(COC(=O)CCCCCCCCCCCCC)(COC(=O)CCNCCN(C)C)COC(=O)CCNCCN(C)C` [polyamine 5], in the assay with NIH 3T3 cells [2], the “transfection activity among the polyamines” value was “superior to the other polyamines”.
